# Reference: publication PMC10584170, “Machine learning-based phenotypic imaging to characterise the targetable biology of Plasmodium falciparum male gametocytes for the development of transmission-blocking antimalarials” (PLOS Pathogens, 2023)
# Legend:
# [1] = tested on: P. falciparum male gametocytes; experiment: PhIDDLI screening assay, 24 h preincubation at 10xIC50, tubulin/DAPI imaging of male gametogenesis; assay type: cell-based, Plasmodium falciparum NF54; conditions: approximately 10xIC50, fixed 20 min post-induction
# Experimental: Mature gametocytes were treated for 24h with approximately 10xIC50 of test compounds or DMSO as a solvent control. Male gametogenesis was then induced by lowering the temperature from 37°C to ~20°C and adding xanthurenic acid. 20min later, when male gametogenesis (exflagellation) could be expected to peak, all samples were fixed. A sample of non-induced DMSO-treated gametocytes was fixed with 4% paraformaldehyde to provide an unactivated gametocyte control for comparison. The cells were then processed for immunofluorescence using an antibody against alpha-tubulin II and DNA staining with 4′,6-diamidino-2-phenylindole (DAPI) and visualised by fluorescence microscopy. Tubulin-bright cells from each treated sample were imaged and captured at random.
# Cells were identified using a semi-automated pipeline established in the ICY BioImageAnalysis (https://icy.bioimageanalysis.org/) protocols module. Images and accompanying bounding boxes representing the outlines of identified cells were then passed to the PhIDDLI pipeline. PhIDDLI consists of several open source image processing and AI/ML modules connected for seamless processing, clustering and visualisation of cellular phenotypes (Fig 3A). […] To focus on the overall cellular phenotype rather than potentially confounding variable immunostaining intensities between experimental replicates, cells were transformed so that the range of staining intensities for each channel were normalised to fall between a 0–255 pixel intensity value. Then, using the Albumentations module (https://albumentations.ai/) to augment the dataset and control for cells in different orientations, each extracted cell image was rotated 90, 180 and 270 degrees and mirrored so that each cell was represented eight different times in the dataset. The augmented images were then passed to the EffcientNet-B1 module (https://github.com/tensorflow/tpu/tree/master/models/official/efficientnet) (a pretrained neural network developed for image processing) which extracted 1,000 distinct numerical features from each individual cell image. The EfficientNet-B1 was selected from amongst the other EfficientNet models due to its input image size (240 pixels) best matching the size of the individual cell images in the dataset, therefore ensuring maximal input data whilst allowing acceptable computation time on a desktop computer. […]
# Mature gametocyte cultures were divided into 100 μl “microcultures” in pre-warmed 1.5 ml tubes also containing 100 μl complete culture medium with test compounds at a final concentration of 10xIC50 or 0.5% DMSO as a solvent control. Tubes were gassed and incubated at 37°C for 24 h. The entire compound library was screened once, spread over four different experiments, each with two DMSO control tubes. An 8% formaldehyde solution was prepared by diluting 16% methanol-free formaldehyde in an equal volume of phosphate-buffered saline (PBS). In each experiment, one DMSO control tube was fixed with equal volume of 8% formaldehyde (4% final concentration) at 37°C to provide an “unactivated” gametocyte control. Gametogenesis was then triggered in the remaining DMSO control tube and all compound tubes by adding 10 μl ookinete medium, and they were immediately incubated at room temperature. After 20 min (when exflagellation is maximal), all remaining tubes were fixed for 30 min.
# 100 μl of the fixed cell suspensions were added to wells of a 24 well plate containing 1ml PBS and a poly-l-lysine-coated glass coverslip.
# [2] = tested on: P. falciparum protein kinase G (PfPKG); conditions: cited from earlier work
# [3] = tested on: P. berghei ookinete development; experiment: P. berghei Ookinete Development Assay (PbODA); assay type: cell-based, Plasmodium berghei; conditions: Mean TOX HepG2 over Pb ODA value; GREEN = >10-fold; RED = <10-fold
SMILES,Cellular phenotype of male gametocytes [1],activity against recombinant PfPKG [2],Cytotox ratio Pb Ookinete [3]
CC(C)(CNC(=O)[C@H]1CCCCN1)c1nc(-c2ccc(Cl)c(O)c2)c(-c2ccncc2)[nH]1.Cl [TC04],unactivated phenotype consistent with total arrest of gametogenesis,–,–
CC(C)(CN)c1nc(-c2ccc(Br)c(O)c2)c(-c2ccncc2)[nH]1.Cl [TC13],unactivated phenotype consistent with total arrest of gametogenesis,had activity,38479.3
Cl.NCC1(c2nc(-c3ccc(Cl)c(O)c3)c(-c3ccncc3)[nH]2)CCCCC1 [TC41],unactivated phenotype consistent with total arrest of gametogenesis,–,14844.9
